Data set [1] can be described thus: Presence of at least one case with successful reintroduction. [column 'REINT' in source]. As to conditions: human.
The conditions of data set [2]: human.
For data set [3] the following is noted: human. This is another data set of the same source.
The conditions of data set [4]: human. This is another data set of the same source.
For data set [5] the following is noted: human. The source holds these as a separate data set.
The conditions of data set [6]: human, serum.
For data set [7] the following is noted: human. This is another data set of the same source.
The conditions of data set [8]: human. This is another data set of the same source.
The conditions of data set [9]: human, serum, 4383 h.
The conditions of data set [10]: human, serum. This is another data set of the same source.
The nature of data set [11]: Comments (NB not yet translated). [column 'COMMENTAIRES' in source]. As to conditions: human.
Data set [12] is described as follows: Highest frequency of acute liver toxicity observed during clinical trials, expressed as a percentage. [column '% AIGUE' in source]. Particulars: human.
For data set [13] the following is noted: human. This is another data set of the same source.
For data set [14] the following is noted: human. This is another data set of the same source.
For data set [15] the following is noted: human. This is another data set of the same source.
The nature of data set [16]: Times to onset, minimal and maximal, observed in the indexed observations. [column 'DELAI' in source]. As to conditions: human.
The nature of data set [17]: Highest frequency of moderate liver toxicity observed during clinical trials, expressed as a percentage. [column '% BIOL' in source]. As to conditions: human.
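Throughout, for Hepatotoxicity (association with vascular disease): count of indexed literature references reporting vascular liver injury in humans, e.g. peliosis hepatitis, hepatic veno-occlusive disease or Budd-Chiari syndrome.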
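Throughout, for Hepatotoxicity (benign tumour): value is a count of indexed literature references citing a benign tumour confirmed by histopathology.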
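Throughout, for Hepatotoxicity (choleostasis): human cholestatic liver injury, shown by histopathology or by peak ALT or AST elevation over alkaline phosphatase ratio below 2, value counts indexed literature reports.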
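Throughout, for Hepatotoxicity (chronic liver disease): chronic liver injury confirmed by histopathology or persistently raised serum aminotransferase activity beyond 6 months, value given as the count of indexed literature references.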
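Throughout, for Hepatotoxicity (cirrhosis): value is a count of indexed literature references reporting cirrhosis confirmed by histopathology.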
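Throughout, for Hepatotoxicity (cytolytic): human cytolytic liver injury, shown by histopathology or by a ratio above 5 of peak ALT or AST elevation to alkaline phosphatase elevation, value counts indexed references.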
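Throughout, for Hepatotoxicity (granulomatous hepatitis): value is a count of indexed literature references reporting granulomatous liver disease confirmed by histopathology.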
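Throughout, for Hepatotoxicity (malignant tumour): malignant tumour confirmed by histopathology, value gives the count of indexed literature references reporting it.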
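Throughout, for Hepatotoxicity (severe hepatitis): human clinical data: severe hepatitis, meaning potentially life-threatening liver failure or clinically observed cases, the value counts how many indexed literature references report it.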
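Throughout, for Hepatotoxicity (steatosis): steatosis confirmed by histopathology, value is the count of indexed references.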

On to `CC(C)(C)NC(=O)[C@@H]1CN(Cc2cccnc2)CCN1C[C@@H](O)C[C@@H](Cc1ccccc1)C(=O)N[C@H]1c2ccccc2C[C@H]1O.O`, for which the “Hepatotoxicity (successful reintroduction)” value in [1] was “yes”. The “Hepatotoxicity (steatosis)” value in [2] is listed as 3. Besides, the “Hepatotoxicity (cytolytic)” value in data set [3] is listed as 8. Further, the “Hepatotoxicity (granulomatous hepatitis)” value in [4] came to 0. The “Hepatotoxicity (benign tumour)” value in data set [5] was determined as 0. In addition, the “Hepatotoxicity (acute)” value amounted to 12 in data set [6] and 9.1% in data set [12] (Liver). The “Hepatotoxicity (malignant tumour)” value in data set [7] amounted to 0. In addition, the “Hepatotoxicity (choleostasis)” value in data set [8] is given as 0. For the same molecule, the “Hepatotoxicity (chronic liver disease)” value in data set [9] was 0. In addition, the “Hepatotoxicity (moderate)” value in data set [10] stood at 5; in [17] (Liver) it was 8%. The “Hepatotoxicity (comment)” value in data set [11] was “REACTIVATION_HVB/HVC LITHIASE”. For the same molecule, in data set [13], the “Hepatotoxicity (cirrhosis)” value turned out to be 0. The “Hepatotoxicity (association with vascular disease)” value in [14] was 0. Moreover, the “Hepatotoxicity (severe hepatitis)” value in [15] (Liver) was 4. Also, the “Hepatotoxicity (time to onset)” value in data set [16] was 5 hours - 19 months.

On to `Nc1cc([As]2[As](c3ccc(O)c(N)c3)[As](c3ccc(O)c(N)c3)[As](c3ccc(O)c(N)c3)[As]2c2ccc(O)c(N)c2)ccc1O.Nc1cc([As]2[As](c3ccc(O)c(N)c3)[As]2c2ccc(O)c(N)c2)ccc1O` (configuration not stated), for which the “Hepatotoxicity (successful reintroduction)” value in data set [1] is “yes”. Further, in [2], the “Hepatotoxicity (steatosis)” value came out at 0. Besides, in data set [3], the “Hepatotoxicity (cytolytic)” value is recorded as 1. In addition, the “Hepatotoxicity (granulomatous hepatitis)” value in data set [4] was determined as 0. Moreover, in data set [5], the “Hepatotoxicity (benign tumour)” value came to 0. Moreover, the entries for the “Hepatotoxicity (acute)” value in data set [6] and in data set [12] were 6 and 0%, respectively. Also, in [7], the “Hepatotoxicity (malignant tumour)” value is on record as 0. Further, the “Hepatotoxicity (choleostasis)” value in [8] amounted to 1. In addition, the “Hepatotoxicity (chronic liver disease)” value in [9] came to 0. Besides, the “Hepatotoxicity (moderate)” value in data set [10] turned out to be 0; in data set [17], 0%. Moreover, in [11], the “Hepatotoxicity (comment)” value is recorded as “CHOLESTASE_PROLONGEE CHOLANGITE”. Further, the “Hepatotoxicity (cirrhosis)” value in data set [13] came out at 0. In data set [14], the “Hepatotoxicity (association with vascular disease)” value was 0. Further, the “Hepatotoxicity (severe hepatitis)” value in data set [15] is 1. For the same molecule, in data set [16], the “Hepatotoxicity (time to onset)” value is given as 1 week - 1 year.

`Cc1ncc(CSSCc2cnc(C)c(O)c2CO)c(CO)c1O` [PYRITINOL]: the “Hepatotoxicity (successful reintroduction)” value in data set [1] is reported as “yes”. Besides, the “Hepatotoxicity (steatosis)” value in [2] was found to be 1. Besides, the “Hepatotoxicity (cytolytic)” value in [3] was found to be 1. The “Hepatotoxicity (granulomatous hepatitis)” value in data set [4] came out at 0. Also, in data set [5], the “Hepatotoxicity (benign tumour)” value was 0. Besides, the “Hepatotoxicity (acute)” value in data set [6] stood at 6; in data set [12], 0%. Also, the “Hepatotoxicity (malignant tumour)” value in data set [7] was 0. Besides, in data set [8], the “Hepatotoxicity (choleostasis)” value is 4. In data set [9], the “Hepatotoxicity (chronic liver disease)” value turned out to be 0. Besides, the “Hepatotoxicity (moderate)” value in data set [10] is on record as 1; in data set [17], 1.4%. Further, the “Hepatotoxicity (comment)” value in [11] is listed as “CHOLESTASE_PROLONGEE”. In addition, the “Hepatotoxicity (cirrhosis)” value in data set [13] is 0. Also, in [14], the “Hepatotoxicity (association with vascular disease)” value was found to be 0. Moreover, in data set [15], the “Hepatotoxicity (severe hepatitis)” value is 1. The “Hepatotoxicity (time to onset)” value in [16] was 1 day - 2 months.

In the case of `CCOC(=O)/C=C(C)/C=C/C=C(C)/C=C/c1c(C)cc(OC)c(C)c1C` [ETRETINATE], the “Hepatotoxicity (successful reintroduction)” value in data set [1] is recorded as “yes”. For the same molecule, the “Hepatotoxicity (steatosis)” value in data set [2] was 5. In addition, the “Hepatotoxicity (cytolytic)” value in data set [3] is reported as 12. In addition, the “Hepatotoxicity (granulomatous hepatitis)” value in data set [4] came to 1. Besides, the “Hepatotoxicity (benign tumour)” value in [5] is 0. In addition, the “Hepatotoxicity (acute)” value was found to be 20 in [6] and 1.5% in [12]. Also, in data set [7], the “Hepatotoxicity (malignant tumour)” value was 0. For the same molecule, the “Hepatotoxicity (choleostasis)” value in data set [8] amounted to 6. Also, in data set [9], the “Hepatotoxicity (chronic liver disease)” value is listed as 7. The “Hepatotoxicity (moderate)” value in data set [10] came out at 31; in data set [17] it was 33%. Further, the “Hepatotoxicity (comment)” value in data set [11] is on record as “I/METHOTREXATE CHOLANGITE”. For the same molecule, the “Hepatotoxicity (cirrhosis)” value in data set [13] came out at 1. For the same molecule, in data set [14], the “Hepatotoxicity (association with vascular disease)” value was 0. In addition, in data set [15], the “Hepatotoxicity (severe hepatitis)” value amounted to 2. Moreover, the “Hepatotoxicity (time to onset)” value in data set [16] worked out at 1 week - 1 year.

Take `c1ccc([C@H]2CN3CCSC3=N2)cc1` [LEVAMISOLE]: in data set [1], the “Hepatotoxicity (successful reintroduction)” value was “yes”. Further, the “Hepatotoxicity (steatosis)” value in data set [2] is given as 6. Also, the “Hepatotoxicity (cytolytic)” value in data set [3] (Liver) is recorded as 0. Besides, in [4] (Liver), the “Hepatotoxicity (granulomatous hepatitis)” value worked out at 0. In addition, the “Hepatotoxicity (benign tumour)” value in [5] came out at 0. The “Hepatotoxicity (acute)” value in [6] amounted to 0; in [12] (Liver), 0%. In data set [7], the “Hepatotoxicity (malignant tumour)” value was found to be 0. Moreover, the “Hepatotoxicity (choleostasis)” value in data set [8] (Liver) was 0. The “Hepatotoxicity (chronic liver disease)” value in [9] came out at 0. For the same molecule, the figures for the “Hepatotoxicity (moderate)” value in data set [10] and in data set [17] (Liver) were 11 and 61.2%, respectively. The “Hepatotoxicity (comment)” value in [11] is “I/FLUOROURACIL”. Also, the “Hepatotoxicity (cirrhosis)” value in data set [13] turned out to be 0. Further, in data set [14], the “Hepatotoxicity (association with vascular disease)” value is reported as 0. Moreover, the “Hepatotoxicity (severe hepatitis)” value in data set [15] (Liver) came out at 0. Also, in [16], the “Hepatotoxicity (time to onset)” value came out at 1 month - 1 year.

`O=C(N[C@H](CO)[C@H](O)c1ccc([N+](=O)[O-])cc1)C(Cl)Cl` [CHLORAMPHENICOL]: the “Hepatotoxicity (successful reintroduction)” value in [1] is listed as “yes”. The “Hepatotoxicity (steatosis)” value in data set [2] stood at 1. The “Hepatotoxicity (cytolytic)” value in data set [3] came out at 2. Further, the “Hepatotoxicity (granulomatous hepatitis)” value in data set [4] was 0. Further, in data set [5], the “Hepatotoxicity (benign tumour)” value was 0. Moreover, the “Hepatotoxicity (acute)” value in [6] was 14; in [12] it was 7.7%. For the same molecule, the “Hepatotoxicity (malignant tumour)” value in data set [7] is listed as 0. In addition, in data set [8], the “Hepatotoxicity (choleostasis)” value is recorded as 1. In data set [9], the “Hepatotoxicity (chronic liver disease)” value stood at 0. The “Hepatotoxicity (moderate)” value is given as 1 in data set [10] and 46.2% in data set [17]. Besides, the “Hepatotoxicity (comment)” value in [11] is recorded as “RC/COTRIMOXAZOLE”. For the same molecule, the “Hepatotoxicity (cirrhosis)” value in [13] was found to be 0. Besides, the “Hepatotoxicity (association with vascular disease)” value in [14] is listed as 0. Moreover, the “Hepatotoxicity (severe hepatitis)” value in data set [15] came out at 0. In addition, the “Hepatotoxicity (time to onset)” value in data set [16] was determined as 1 month - 2 months.

Take `CC(CCc1ccccc1)NCC(O)c1ccc(O)c(C(N)=O)c1` (configuration not stated) [LABETALOL]: the “Hepatotoxicity (successful reintroduction)” value in data set [1] was “yes”. Further, the “Hepatotoxicity (steatosis)” value in data set [2] came out at 0. In addition, the “Hepatotoxicity (cytolytic)” value in [3] was 6. In addition, the “Hepatotoxicity (granulomatous hepatitis)” value in data set [4] amounted to 0. In addition, the “Hepatotoxicity (benign tumour)” value in data set [5] is 0. Besides, the “Hepatotoxicity (acute)” value in data set [6] is given as 6; in [12], 0.9%. For the same molecule, the “Hepatotoxicity (malignant tumour)” value in data set [7] is 0. In addition, the “Hepatotoxicity (choleostasis)” value in data set [8] amounted to 0. In data set [9], the “Hepatotoxicity (chronic liver disease)” value came out at 0. The results for the “Hepatotoxicity (moderate)” value in data set [10] and in data set [17] were 5 and 20.5%, respectively. For the same molecule, the “Hepatotoxicity (comment)” value in [11] is listed as “AC_ANTI-N”. In addition, the “Hepatotoxicity (cirrhosis)” value in data set [13] worked out at 0. For the same molecule, the “Hepatotoxicity (association with vascular disease)” value in data set [14] was found to be 0. In addition, the “Hepatotoxicity (severe hepatitis)” value in data set [15] is listed as 4. Moreover, in data set [16], the “Hepatotoxicity (time to onset)” value is listed as 3 weeks - 6 months.

As to STREPTOKINASE, the “Hepatotoxicity (successful reintroduction)” value in data set [1] is reported as “yes”. In addition, in data set [2], the “Hepatotoxicity (steatosis)” value turned out to be 0. Moreover, the “Hepatotoxicity (cytolytic)” value in [3] is 5. Also, the “Hepatotoxicity (granulomatous hepatitis)” value in [4] stood at 0. Further, the “Hepatotoxicity (benign tumour)” value in data set [5] worked out at 0. The “Hepatotoxicity (acute)” value in data set [6] was 9; in data set [12], 0%. For the same molecule, the “Hepatotoxicity (malignant tumour)” value in data set [7] is 0. The “Hepatotoxicity (choleostasis)” value in data set [8] is listed as 3. The “Hepatotoxicity (chronic liver disease)” value in data set [9] amounted to 0. Further, the results for the “Hepatotoxicity (moderate)” value in data set [10] and in data set [17] were 12 and 75%, respectively. In data set [11], the “Hepatotoxicity (comment)” value is “RUPTURE_HEPATIQUE”. Further, the “Hepatotoxicity (cirrhosis)” value in [13] stood at 0. Moreover, the “Hepatotoxicity (association with vascular disease)” value in [14] turned out to be 0. Also, in [15], the “Hepatotoxicity (severe hepatitis)” value is on record as 0. The “Hepatotoxicity (time to onset)” value in data set [16] came out at 1 day - 1 week.

Regarding `CC(C)(C)NC(=O)[C@@H]1C[C@@H]2CCCC[C@@H]2CN1C[C@@H](O)[C@H](Cc1ccccc1)NC(=O)[C@H](CC(N)=O)NC(=O)c1ccc2ccccc2n1`, the “Hepatotoxicity (successful reintroduction)” value in data set [1] is recorded as “yes”. For the same molecule, the “Hepatotoxicity (steatosis)” value in data set [2] is recorded as 0. Further, the “Hepatotoxicity (cytolytic)” value in data set [3] (Liver) is on record as 10. In addition, the “Hepatotoxicity (granulomatous hepatitis)” value in data set [4] (Liver) is on record as 0. In data set [5], the “Hepatotoxicity (benign tumour)” value was found to be 0. Moreover, the “Hepatotoxicity (malignant tumour)” value in data set [7] is 0. Besides, the “Hepatotoxicity (choleostasis)” value in data set [8] (Liver) is listed as 0. Moreover, the “Hepatotoxicity (chronic liver disease)” value in data set [9] is on record as 0. The figures for the “Hepatotoxicity (moderate)” value in data set [10] and in [17] (Liver) were 7 and 44%, respectively. In addition, the “Hepatotoxicity (comment)” value in data set [11] is reported as “REACTIVATION_HVB”. Further, in data set [12] (Liver), the “Hepatotoxicity (acute)” value worked out at 12.5%. Also, the “Hepatotoxicity (cirrhosis)” value in data set [13] came out at 0. Besides, in [14], the “Hepatotoxicity (association with vascular disease)” value was determined as 0. The “Hepatotoxicity (severe hepatitis)” value in data set [15] (Liver) stood at 0. For the same molecule, the “Hepatotoxicity (time to onset)” value in data set [16] was less than 1 day - 6 months.

(Values after ChEMBL document CHEMBL3137667, “[Drug-induced liver injury; fourteenth updated edition of the bibliographic database of liver injuries and related drugs]” (Gastroenterol Clin Biol, 2004).)
